Source: patent US9115345B2, “MicroRNA induction of pluripotential stem cells and uses thereof” (The Trustees Of The University Of Pennsylvania, priority 2010, dated 2015)
“Also recorded” adds a separate entry of the source.

Key:
MEFs = test: CellTiter proliferation assay for MEFs; assay type: cell-based, mouse; details: wild-type and Hdac2-/- MEFs
Description: Proliferation assays for MEFs were performed using the CellTiter 96 Aqueous One Solution Cell Proliferation kit (Promega, Inc.). 20 μl of CellTiter Reagent, which functions by being incorporated by viable cells into a colorimetric product that can be measured at 490 nm, was added to 100 μL of culture medium, incubated at 37° C. […] absorbance was measured at 490 nm at 1.5 hours, 2.5 hours, and 4.5 hours.

Hdac1 = test: Western blot for Hdac1 in MEFs; assay type: cell-based, mouse; details: MEFs during miR302/367 reprogramming
Description: (§1) Total cell lysates were prepared for Western blotting as previously described (Trivedi et al., 2008). Equal amounts of protein were resolved by SDS-PAGE and transferred to polyvinylidenedifluoride membranes. Membranes were incubated with Hdac1 antibody (1:1000 dilution, Cell Signaling), Hdac2 antibody (1:1000 dilution, Invitrogen) or Hdac3 antibody (1:1000 dilution, Sigma). Primary antibody binding was visualized by HRP-conjugated secondary antibody and detected by enhanced chemiluminescence (LumiGlo, Cell Signaling). For loading control, membranes were reprobed with primary antibody against GAPDH (1:2500 dilution, Abeam).

Hdac3 = test: Western blot for Hdac3 in MEFs; assay type: cell-based, mouse; details: MEFs during miR302/367 reprogramming
Description: as §1

Hdac2-/- MEFs = test: miR302/367 reprogramming of Hdac2-/- MEFs; assay type: cell-based, mouse; details: Hdac2-/- MEFs transduced with miR302/367
Description: (§2) Mouse fibroblasts were isolated from Oct4-GFP, Rosa26-LacZ and Hdac2^flax/flax embryos at E13.5 and cultured in fibroblast medium as described (Takahashi et al., 2007). Hdac2 was excised by infection of Hdac2^flax/flax MEFs with adeno-cre virus. Human dermal fibroblast were cultured in DMEM/F12, 15% FBS, penicillin/streptomycin and L-glutamine. Viral particles were generated by transfection of plated 293T cells with pLOVE vectors encoding miR302/367, Oct4, Sox2, Klf4, or N-myc along with pMD.G and psPAX2 vectors as described (Blelloch et al., 2007). Supernatant from the transfected cells were collected every 24 hr for 48 hrs and titered. The titered viral suspension was mixed with 0.5 μl (0.1 of 10 μg/mL polybrene (American Bioanalytical, MA) per milliliter of viral suspension and used to infect fibroblasts. After viral infection, mouse fibroblast were cultured in mouse ES medium supplemented with or without valproic acid at a final concentration of 2 mM for the indicated length of time. Infected human fibroblast were culture in human ES medium as described (Huangfu et al., 2008a; Takahashi et al., 2007).
The Hdac2p^flox/flox allele was generated by flanking exon 2 with loxP recombination sites using the targeting vector depicted in FIG. 19A. […]

Hdac2 = test: Western blot for Hdac2 in MEFs; assay type: cell-based, mouse; details: MEFs during miR302/367 reprogramming
Description: as §1

[1] = system: human foreskin and dermal fibroblasts; test: Reprogramming of human fibroblasts: colonies with human ES like morphology; assay type: cell-based
Description: as §2

Oct4-GFP MEFs = test: iPS reprogramming of Oct4-GFP MEFs: clones with ES like morphology and Oct4-GFP positive clones; assay type: cell-based, mouse; details: day 10 of reprogramming; culture up to three weeks
Description: as §2

Molecule | proliferation rates in MEFs (MEFs) | Hdac1 protein expression level (Hdac1) | Hdac3 protein expression level (Hdac3) | effect of VPA addition on number of iPS cell clones (Hdac2-/- MEFs) | Hdac2 protein level (Hdac2) | requirement for and effect of VPA on reprogramming human fibroblasts by miR302/367 [1] | iPS cell colony generation in MEFs (Oct4-GFP MEFs)
CCCC(CCC)C(=O)O [VPA, valproic acid] | did not affect proliferation rates | unchanged | unchanged | did not change the number of iPS cell clones | caused degradation of Hdac2 protein | not required; also recorded: did not affect the efficiency of reprogramming | 
miR367: miR367 expressed alone; sequence AAUUGCACUUUAGCAAUGGUGA (SEQ ID NO: 8) (listed as Homo sapiens) |  |  |  |  |  |  | did not reprogram fibroblasts
